Measured values from publication PMC3809593 (BioMed Research International, 2013).
Several values for one entry are separate records, joined by “and”; a condition that tells them apart may be missing. Equal entries are not always repeated. Entries after “also recorded” stand apart in the source; their conditions may differ. Ends that are not written are not given here.

Tests used:
[1] = system: MDA-MB-231 (breast adenocarcinoma) tumour cell line; test: MTT viability assay (cytostasis %); type: cell-based, human; details: MDA-MB-231, 72 h incubation in RPMI, mean of three absorbance readings
Procedure: (§1) Consecutive peptide dilutions with RPMI 1640 (Sigma Aldrich) were used, whereas the working concentrations were 120 μM, 60 μM, 30 μM, 15 μM, 7.5 μM, 3.5 μM, 1.8 μM, and 0.9 μM in a final volume of 200 μL/well. […] Everything was treated in a sterile fashion.
(§2) We analysed the cytotoxicity of the peptide chosen for our study in relation to two adherent tumour cell lines: MDA-MB-231 (breast adenocarcinoma) and M14K (human mesothelioma). These lines were cultivated in the same conditions as those used for the optimization of the number of target cells. The negative control was represented by target cells incubated without peptide. Viability was analysed after 72 h of incubation at 37°C, 5% CO2, by two methods: MTT colorimetric assay [3-(4,5-dimethylthiazol-2-yl)-2,5-diphenyltetrazolium bromide] and flow cytometry using PE Annexin V (BD Pharmingen) and 7-AAD (7-aminoactinomycin D).
(§3) [3-(4,5-Dimethylthiazol-2-yl)-2,5-diphenyltetrazolium Bromide] […] Absorbance was measured at 570 nm against a 620 nm reference wavelength using a Tecan Sunrise plate reader. Relying on the absorbance values read in the cells incubated with the peptide studied (A peptide cells) and depending on the absorbance value read in peptide-free cells (A negative control), we calculated the cytostasis percentage, that is, the percentage of cells affected by apoptosis of the whole number of cells in any of the wells analysed. […]

[2] = system: M14K (human mesothelioma) tumour cell line; test: MTT viability assay (cytostasis %); type: cell-based; details: 72 h incubation in RPMI, mean of three absorbance readings
Procedure: as §1, §2, §3

[3] = system: MDA-MB-231 (breast adenocarcinoma) tumour cell line; test: PE Annexin V / 7-AAD flow cytometry apoptosis assay; type: cell-based, human; details: MDA-MB231, 72 h in RPMI, 5000 events/well; for Q1—dead cells (7-AAD+): negative control 1.8; for Q2—late apoptosis cells (7-AAD+ Annexin V+): negative control 3; for Q4—early apoptosis cells (Annexin V+ 7-AAD−): negative control 4.7; for Q3—living cells (7-AAD− Annexin V−): negative control 90.5
Procedure: as §2
(§4) PE Annexin V and 7-AAD (7-Aminoactinomycin D) (BD Pharmingen) Viability Assay. This assay was used to detect and measure the apoptotic process by means of flow cytometry. Apoptosis is characterized by cell morphology changes, nuclear condensation, pyknosis, and also by a series of biochemical events causing mitochondrial membrane and nuclear DNA degradation. Phosphatidylserine, which is normally present in the inner layer of the lipid bilayer of the cell membrane, is exposed at the surface of the cells undergoing various stages of apoptosis. Annexin V has great affinity to phosphatidylserine residue, and 7-AAD was used as vital nuclear DNA stain. 96-well cell culture plates were used in our study. The first (1) and last (12) columns of wells only contained culture medium (RPMI 1640) in order to prevent the edge effect. Columns 2 and 11 of wells only contained peptide-free cell suspension (negative control). Columns 3–10 contained target cells and consecutive peptide dilutions. We worked in triplicate for the two cell lines and all the peptide concentrations we used. After 72 h of incubation at 37°C, 5% CO2, adherent cells were detached by trypsination (3–10 minutes of incubation at 37°C with Eurobio trypsin). The cell suspension was distributed in such a manner that each FACS tube had 1 × 10^5 cells. 3 FACS tubes were assessed; the first FACS tube contained unmarked cells, the second FACS tube contained Annexin V PE, and the third FACS tube contained Annexin V PE/7-AAD. Data collection and interpretation were done on a FACS Canto II flow cytometer using the FACSDiva Software (Becton Dickinson) (Figure 3).
Flow cytometry allowed apoptosis assessment for the MDA-MB-231 cell line incubated with the […]. 5000 events/well were acquired, and the results were compared with the viability of the peptide-free cells (negative control).

[4] = system: M14K (human mesothelioma) tumour cell line; test: as above; type: cell-based; details: for Q1 (7-AAD+) dead cells / Q2 (7-AAD+ Annexin V+) late apoptotic cells / Q4 (Annexin V+ 7AAD−) early apoptotic cells: 72 h in RPMI, 5000 events/well; for Q1 (7-AAD+) dead cells: negative control 2.1; for Q2 (7-AAD+ Annexin V+) late apoptotic cells: negative control 3.8; for Q4 (Annexin V+ 7AAD−) early apoptotic cells: negative control 4.5
Procedure: as §2, §4

MCF7 tumour cell line = details: cited from earlier work
Excerpt: MDA-MB-231 is an adherent breast adenocarcinoma cell line, one of the three known breast cancer cell lines: MCF-7, MDA-MB-231, and T-47D [18, 19].

[5] = cited from earlier work
Excerpt: This peptide is water soluble and nonhaemolytic at its effective and amphiphilic antimicrobial concentrations. At small concentrations, it inhibits the growth of numerous species of bacteria and fungi, and it induces osmotic lysis in protozoa ... || According to the product specifications, this peptide is soluble in distilled water with 0.1% TFA. As the solution is meant to be inserted into cell culture medium, we have chosen RPMI as the most suitable medium. This medium also allowed us to maintain an optimum pH (7.2–7.4) as we inserted the peptide solution. The extemporaneous peptide solution was utilized immediately after preparation.

[6] = at its effective antimicrobial concentrations; cited from earlier work
Excerpt: This peptide is water soluble and nonhaemolytic at its effective and amphiphilic antimicrobial concentrations. At small concentrations, it inhibits the growth of numerous species of bacteria and fungi, and it induces osmotic lysis in protozoa ...

## GIGKFLHSAKKFGKAFVGEIMNS [Magainin II]
[1]; 15 μM peptide
  cytostasis % (MTT test): absent
[1]; 30 μM peptide
  cytostasis % (MTT test): persisted; also recorded: significantly lower
[2]; 15 μM peptide
  cytostasis % (MTT test): absent
[2]; 30 μM peptide
  cytostasis % (MTT test): significantly lower
[3]; 60 μM peptide
  Q1—dead cells (7-AAD+): 0.8%
  Q2—late apoptosis cells (7-AAD+ Annexin V+): 19.6%
  Q4—early apoptosis cells (Annexin V+ 7-AAD−): 3.4%
  Q3—living cells (7-AAD− Annexin V−): 76.2%
[3]; 120 μM peptide
  Q1—dead cells (7-AAD+): 1.4%
  Q2—late apoptosis cells (7-AAD+ Annexin V+): 47.5%
  Q4—early apoptosis cells (Annexin V+ 7-AAD−): 14.8%
  Q3—living cells (7-AAD− Annexin V−): 36.3%
[4]; 60 μM peptide
  Q1 (7-AAD+) dead cells: 0.3%
  Q2 (7-AAD+ Annexin V+) late apoptotic cells: 8.6%
  Q4 (Annexin V+ 7AAD−) early apoptotic cells: 5.9%
[4]; 120 μM peptide
  Q1 (7-AAD+) dead cells: 2.8%
  Q2 (7-AAD+ Annexin V+) late apoptotic cells: 47.8%
  Q4 (Annexin V+ 7AAD−) early apoptotic cells: 13.5%
[4]; 72 h, flow cytometry PE Annexin V/7-AAD, concentration not stated in the sentence (values match 120 μM)
  cell population that underwent apoptosis: over 50%
MCF7 tumour cell line
  concentration with cytotoxic effect: exceed 200 μg/mL and > 80 μM
[5]
  solubility in water: water soluble
[5]; distilled water with 0.1% TFA, ref product specifications (SIGMA M7402-1MG)
  solubility: soluble
[6]
  haemolysis: nonhaemolytic
